# Reference: patent US4698350A, “1-ethyl-6-fluoro-1,4-dihydro- 7-(2,6-dimethyl-4-pyridinyl)-4-oxo-3-quinolinecarboxylic acid and antibacterial use thereof” (Sterling Drug Inc., priority 1984, dated 1987)
# Read-outs that look alike come from different tables or passages of the source.
# How the values were obtained:
# E. coli (8739) = assay: In vitro antibacterial MIC/MBC test; assay type: cell-based; conditions: Escherichia coli, ATCC8739; E. coli ATCC No. 8739
# Summary of the method: (§1)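 Overnight cultures were adjusted by OD650 and diluted, then inoculated into serially diluted compound in MHB or, for streptococci, BHI+1% NHS at about 1×10^5 cells/ml. After 18-20 hours at 37° C. the MIC was read visually, and wells were replated on agar to obtain the MBC.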
# E. coli 198 = assay: In vitro antibacterial MIC/MBC test; assay type: cell-based; conditions: Escherichia coli
# Summary of the method: as §1
# E. coli 2350 = assay: In vitro antibacterial MIC/MBC test; assay type: cell-based; conditions: Escherichia coli
# Summary of the method: as §1
# E. coli AH719 = assay: In vitro antibacterial MIC/MBC test; assay type: cell-based; conditions: Escherichia coli
# Summary of the method: as §1
# E. coli Vogel = assay: In vitro antibacterial MIC/MBC test; assay type: cell-based; conditions: Escherichia coli
# Summary of the method: as §1
# P. aeruginosa (15442) = assay: In vitro antibacterial MIC/MBC test; assay type: cell-based; conditions: Pseudomonas aeruginosa, ATCC15442; P. aeruginosa ATCC No. 15442
# Summary of the method: as §1
# P. aeruginosa (27853) = assay: In vitro antibacterial MIC/MBC test; assay type: cell-based; conditions: Pseudomonas aeruginosa, ATCC27853; P. aeruginosa ATCC No. 27853
# Summary of the method: as §1
# P. aeruginosa (7700) = assay: In vitro antibacterial MIC/MBC test; assay type: cell-based; conditions: Pseudomonas aeruginosa, ATCC7700; P. aeruginosa ATCC No. 7700
# Summary of the method: as §1
# P. aeruginosa (9027) = assay: In vitro antibacterial MIC/MBC test; assay type: cell-based; conditions: Pseudomonas aeruginosa, ATCC9027; P. aeruginosa ATCC No. 9027
# Summary of the method: as §1
# P. aeruginosa MGH-2 = assay: In vitro antibacterial MIC/MBC test; assay type: cell-based; conditions: Pseudomonas aeruginosa, MGH2
# Summary of the method: as §1
# P. aeruginosa = assay: In vitro MIC/MBC summary (Table II); assay type: cell-based, Pseudomonas aeruginosa
# Description: (§2) Win 52,522 and Win 35,439 were solubilized in 0.1 ml of 0.5 N NaOH/mg of compound and diluted in sterile distilled water to 160 mcg/ml. Vancomycin and methicillin were solubilized in sterile distilled water to 1250 mcg/ml of base compound. The stock solutions were sterilized by filtration through membrane filters with a 0.45 μm pore size.
# (§3) The bacterial cultures listed in Table I (hereinbelow) were grown overnight at 37° C. in MHB for all cultures except the Streptococcus strains. These were grown in BHI+10% NHS. The overnight broth cultures were adjusted to an optical density of 0.10 (650 nm, B L Spectronic 20) in sterile distilled water and subsequently diluted to 6.7×10^6 cells/ml in MHB or BHI+1% NHS.
# (§4) Serial two-fold dilutions of the compound solutions were prepared in MHB (or in BHI+1% NHS for tests with Streptococci) and dispensed into 96-well microtiter trays in a volume of 0.1 ml/well using a Sandy Springs (Bellco Glass Co.) dispenser. The trays were then inoculated with 0.0015 ml of a suspension containing 6.7×10^6 cells/ml of the appropriate inoculum using a MIC-2000 inoculator (Dynatech Corp.) resulting in a final inoculum of approximately 1×10^4 cells/well or 1×10^5 cells/ml. The trays were incubated at 37° C. for 18-20 hours and the minimal inhibitory concentration (MIC), defined as the lowest concentration of compound to inhibit visible bacterial growth, was recorded.
# (§5) After the MIC values were recorded, the contents in the microtiter trays were thoroughly mixed on a Bellco Mini-orbital Shaker (Bellco Glass Co.) for 3 min. at a setting of 8. A portion (0.0015 ml) from each well was then transferred via an MIC-2000 inoculator to plates containing MHA or BHI agar+10% NHS. The plates were incubated at 37° C. for 18-20 hrs. The minimal bactericidal concentration (MBC), defined as the lowest concentration of compound that prevented the formation of a recognizable colony on the agar surface, was recorded.
# [1] = system: S. pyogenes and S. pneumoniae; assay: In vitro antibacterial activity; assay type: cell-based
# Description: as §2, §3, §4, §5
# [2] = system: Staphylococcus aureus Smith; assay: Mouse protection test, S. aureus Smith infection, multiple dose; assay type: in vivo, ICR mice; Staphylococcus aureus; conditions: for ED50: Staphylococcus aureus, 168 h, read-out: Protective Dose 50% (95% Confidence Limits)
# Description: (§6) ICR mice, female, 18-20 grams each.
# (§7) Solutions of Win 52,522 and Win 35,439 were prepared by dissolving the appropriate weight of drug in 0.3 to 0.4 ml of 1 N NaOH and then bringing the solutions to the desired volume with distilled water. Methicillin and vancomycin were dissolved directly in distilled water.
# Two and one-half ml of pool were added to 247.5 ml of 5% gastric mucin to provide the test inoculum containing 2.1×10^4 cells/ml.
# (§8) Mice were inoculated intraperitoneally with 0.5 ml of the bacterial test inoculum.
# 2. Multiple dose test--Mice were medicated subcutaneously (0.2 ml) or orally (0.5 ml) at the following times: six hours and one hour preinfection (infection at 2 pm) and twice a day (8 a.m. and 3:30 p.m.) for the next two successive days.
# (§9) Deaths were recorded daily for seven days for all tests. Fifty percent protective dose values (PD50's) were calculated using probit analysis [SAS Users Guide: Statistics, 1982 Edition, SAS Institute, Inc., Cary, N.C.].
# Escherichia coli Vogel = assay: Mouse protection test, E. coli Vogel infection; assay type: in vivo, ICR mice; Escherichia coli; conditions: for ED50: Escherichia coli, 168 h, once one-half hour postinfection, read-out: Protective Dose 50% (95% Confidence Limits); for times more efficacious than Win 35,439: E. coli infection
# Description: as §6, §7
# The culture was inoculated into 10 ml of Brain Heart Infusion broth and grown statically for 16 hours at 37° C. Fresh tubes of the same broth were inoculated with 0.1 ml portions of the 16 hour broth culture and incubation continued for 5 hours at 37° C. The 5 hour broth culture was finally diluted with saline to provide the test inoculum containing 4.0×10^7 cells/ml.
# as §8
# Mice were medicated subcutaneously or orally once (0.5 ml) one-half hour postinfection.
# as §9
# [3] = Pseudomonas aeruginosa, 5 P. aeruginosa strains
structure (smiles),measurement,setting,value
"CCn1cc(C(=O)O)c(=O)c2cc(F)c(-c3cc(C)nc(C)c3)cc21 [Win 52,522, 1-ethyl-6-fluoro-1,4-dihydro-7-(2,6-dimethyl-4-pyridinyl)-4-oxo-3-quinolinecarboxylic acid]",MBC,E. coli (8739),0.25 µg/mL
same,MIC,E. coli (8739),0.25 µg/mL
same,MBC,E. coli 198,0.5 µg/mL
same,MIC,E. coli 198,0.5 µg/mL
same,MBC,E. coli 2350,0.25 µg/mL
same,MIC,E. coli 2350,0.25 µg/mL
same,MBC,E. coli AH719,0.25 µg/mL
same,MIC,E. coli AH719,0.25 µg/mL
same,MBC,E. coli Vogel,0.5 µg/mL
same,MIC,E. coli Vogel,0.25 µg/mL
same,MBC,P. aeruginosa (15442),16 µg/mL
same,MIC,P. aeruginosa (15442),16 µg/mL
same,MBC,P. aeruginosa (27853),16 µg/mL
same,MIC,P. aeruginosa (27853),16 µg/mL
same,MBC,P. aeruginosa (7700),16 µg/mL
same,MIC,P. aeruginosa (7700),16 µg/mL
same,MBC,P. aeruginosa (9027),16 µg/mL
same,MIC,P. aeruginosa (9027),4 µg/mL
same,MBC,P. aeruginosa MGH-2,16 µg/mL
same,MIC,P. aeruginosa MGH-2,16 µg/mL
same,MIC,P. aeruginosa; [3],4 to 16 µg/mL
same,MIC50,P. aeruginosa; [3],16 µg/mL
same,MIC90,P. aeruginosa; [3],16 µg/mL
same,MBC,"P. aeruginosa; Pseudomonas aeruginosa, 5 P. aeruginosa strains, read-out: MBC 50%",16 µg/mL
same,MBC,"P. aeruginosa; Pseudomonas aeruginosa, 5 P. aeruginosa strains, read-out: MBC 90%",16 µg/mL
same,MBC,"P. aeruginosa; Pseudomonas aeruginosa, 5 P. aeruginosa strains, read-out: MBC Range",16 µg/mL
same,"potency relative to Win 35,439","P. aeruginosa; in vitro, P. aeruginosa",similarly potent
same,times less potent than methicillin,[1],2-8 times
same,Survivors/Total,[2]; 0.19 mg/kg po,0/10
same,Survivors/Total,[2]; 0.19 mg/kg sc,0/10
same,Survivors/Total,[2]; 0.39 mg/kg po,0/10
same,Survivors/Total,[2]; 0.39 mg/kg sc,0/10
same,Survivors/Total,[2]; 0.78 mg/kg po,0/10
same,Survivors/Total,[2]; 0.78 mg/kg sc,0/10
same,Survivors/Total,[2]; 1.56 mg/kg po,2/10
same,Survivors/Total,[2]; 1.56 mg/kg sc,4/10
same,Survivors/Total,[2]; 3.13 mg/kg po,9/10
same,Survivors/Total,[2]; 3.13 mg/kg sc,9/10
same,Survivors/Total,[2]; 6.25 mg/kg po,10/10
same,Survivors/Total,[2]; 6.25 mg/kg sc,10/10
same,Survivors/Total,[2]; 12.5 mg/kg po,10/10
same,Survivors/Total,[2]; 12.5 mg/kg sc,10/10
same,ED50,[2]; po,2.1 mg/kg
same,ED50,[2]; sc,1.8 mg/kg
same,"times more efficient than Win 35,439",[2]; po,3.4 times
same,"times more efficient than Win 35,439",[2]; sc,3.9 times
same,Survivors/Total,Escherichia coli Vogel; 1.56 mg/kg po,0/10
same,Survivors/Total,Escherichia coli Vogel; 1.56 mg/kg sc,0/10
same,Survivors/Total,Escherichia coli Vogel; 3.13 mg/kg po,0/10
same,Survivors/Total,Escherichia coli Vogel; 3.13 mg/kg sc,0/10
same,Survivors/Total,Escherichia coli Vogel; 6.25 mg/kg po,2/10
same,Survivors/Total,Escherichia coli Vogel; 6.25 mg/kg sc,8/10
same,Survivors/Total,Escherichia coli Vogel; 12.5 mg/kg po,9/10
same,Survivors/Total,Escherichia coli Vogel; 12.5 mg/kg sc,10/10
same,Survivors/Total,Escherichia coli Vogel; 25 mg/kg po,10/10
same,Survivors/Total,Escherichia coli Vogel; 25 mg/kg sc,10/10
same,ED50,"Escherichia coli Vogel; po, po",8.2 mg/kg
same,ED50,"Escherichia coli Vogel; sc, sc",~5.2 mg/kg
same,"times more efficacious than Win 35,439",Escherichia coli Vogel; p.o.,2.0 times
same,"times more efficacious than Win 35,439",Escherichia coli Vogel; s.c.,2.6 times
same,"PD50 values relative to those of Win 35,439",Escherichia coli Vogel; subcutaneous and oral,approximately one-half
